PubChem BioAssay (NCI)
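Values below derive from 48-hour exposures of cells grown in 96-well plates, with endpoints linearly interpolated between the two concentrations bracketing the appropriate inhibition level. TGI denotes the concentration required for complete inhibition of growth.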

Tests used:
Assay in all cases: DTP human tumour cell line panel, 48 h
[1] = tested on: NCI-H522 lung
[2] = tested on: MDA-MB-435
[3] = tested on: NCI-H460 lung
[4] = tested on: HCC-2998 colon
[5] = tested on: CAKI-1 renal
[6] = tested on: M14 melanoma
[7] = tested on: UACC-62 melanoma
[8] = tested on: DU-145 prostate
[9] = tested on: HOP-62 NSCLC
[10] = tested on: MOLT-4 leukemia
[11] = tested on: SK-OV-3 ovarian
[12] = tested on: SF-268 CNS
[13] = tested on: HCT-15 colon
[14] = tested on: HCT-116 colon
[15] = tested on: MDA-N
[16] = tested on: UO-31 renal
[17] = tested on: SW-620 colon
[18] = tested on: ACHN renal
[19] = tested on: RXF 393 renal
[20] = tested on: MALME-3M melanoma
[21] = tested on: K-562 leukemia
[22] = tested on: NCI/ADR-RES ovarian
[23] = tested on: EKVX NSCLC
[24] = tested on: TK-10 renal
[25] = tested on: OVCAR-4 ovarian
[26] = tested on: A498 renal
[27] = tested on: SN12C renal
[28] = tested on: BT-549 breast
[29] = tested on: COLO 205 colon
[30] = tested on: OVCAR-5 ovarian
[31] = tested on: U251 CNS
[32] = tested on: MDA-MB-231 breast
[33] = tested on: NCI-H23 lung
[34] = tested on: SK-MEL-2 melanoma
[35] = tested on: IGROV1 ovarian
[36] = tested on: SK-MEL-5 melanoma
[37] = tested on: 786-0 renal
[38] = tested on: KM12 colon
[39] = tested on: SNB-19 CNS
[40] = tested on: HOP-92 NSCLC
[41] = tested on: PC-3 prostate
[42] = tested on: NCI-H226 lung
[43] = tested on: SNB-75 CNS
[44] = tested on: RPMI-8226 leukemia
[45] = tested on: MCF7 breast
[46] = tested on: SK-MEL-28 melanoma
[47] = tested on: A549 NSCLC
[48] = tested on: HT29 colon
[49] = tested on: SF-295 CNS
[50] = tested on: UACC-257 melanoma
[51] = tested on: OVCAR-3 ovarian
[52] = tested on: LOX IMVI melanoma
[53] = tested on: T-47D breast
[54] = tested on: OVCAR-8 ovarian
[55] = tested on: HS 578T breast
[56] = tested on: SF-539 CNS
[57] = tested on: SR leukemia

## S=c1[nH]nc(CNc2ccc(-c3n[nH]c(=S)n3-c3ccc(Cl)cc3)cc2)n1-c1ccc(Cl)cc1
[1]
  TGI: 48.5 µM
[2]
  TGI: > 100 µM
[3]
  TGI: > 100 µM
[4]
  TGI: > 100 µM
[5]
  TGI: 40.7 µM
[6]
  TGI: 68.1 µM
[7]
  TGI: 78.8 µM
[8]
  TGI: 71.1 µM
[9]
  TGI: 36.6 µM
[10]
  TGI: > 100 µM
[11]
  TGI: > 100 µM
[12]
  TGI: > 100 µM
[13]
  TGI: > 100 µM
[14]
  TGI: 32.8 µM
[15]
  TGI: 86.1 µM
[16]
  TGI: 32.4 µM
[17]
  TGI: > 100 µM
[18]
  TGI: > 100 µM
[19]
  TGI: > 100 µM
[20]
  TGI: 59.9 µM
[21]
  TGI: > 100 µM
[22]
  TGI: > 100 µM
[23]
  TGI: > 100 µM
[24]
  TGI: > 100 µM
[25]
  TGI: > 100 µM
[26]
  TGI: > 100 µM
[27]
  TGI: 82.8 µM
[28]
  TGI: > 100 µM
[29]
  TGI: 38.9 µM
[30]
  TGI: 46.4 µM
[31]
  TGI: > 100 µM
[32]
  TGI: > 100 µM
[33]
  TGI: > 100 µM
[34]
  TGI: 57.7 µM
[35]
  TGI: 47.1 µM
[36]
  TGI: 65 µM
[37]
  TGI: 70 µM
[38]
  TGI: 44 µM
[39]
  TGI: > 100 µM
[40]
  TGI: 59.1 µM
[41]
  TGI: > 100 µM
[42]
  TGI: > 100 µM
[43]
  TGI: > 100 µM
[44]
  TGI: 78 µM
[45]
  TGI: > 100 µM
[46]
  TGI: 64.2 µM
[47]
  TGI: > 100 µM
[48]
  TGI: 66.7 µM
[49]
  TGI: 81.2 µM
[50]
  TGI: > 100 µM

## COC(=O)C1CCC(=O)N1CN(C(C)=O)c1ccccc1Cl (stereo not given)
[1]
  TGI: > 100 µM
[51]
  TGI: > 100 µM
[2]
  TGI: > 100 µM
[3]
  TGI: > 100 µM
[4]
  TGI: > 100 µM
[5]
  TGI: > 100 µM
[6]
  TGI: > 100 µM
[52]
  TGI: > 100 µM
[53]
  TGI: > 100 µM
[7]
  TGI: > 100 µM
[8]
  TGI: > 100 µM
[9]
  TGI: > 100 µM
[10]
  TGI: > 100 µM
[11]
  TGI: > 100 µM
[12]
  TGI: > 100 µM
[13]
  TGI: > 100 µM
[14]
  TGI: > 100 µM
[15]
  TGI: > 100 µM
[16]
  TGI: > 100 µM
[17]
  TGI: > 100 µM
[18]
  TGI: > 100 µM
[19]
  TGI: > 100 µM
[20]
  TGI: > 100 µM
[22]
  TGI: > 100 µM
[23]
  TGI: > 100 µM
[24]
  TGI: > 100 µM
[54]
  TGI: > 100 µM
[25]
  TGI: > 100 µM
[26]
  TGI: > 100 µM
[27]
  TGI: > 100 µM
[29]
  TGI: > 100 µM
[55]
  TGI: > 100 µM
[30]
  TGI: > 100 µM
[31]
  TGI: > 100 µM
[32]
  TGI: > 100 µM
[33]
  TGI: > 100 µM
[34]
  TGI: > 100 µM
[35]
  TGI: > 100 µM
[36]
  TGI: > 100 µM
[37]
  TGI: > 100 µM
[38]
  TGI: > 100 µM
[39]
  TGI: > 100 µM
[40]
  TGI: > 100 µM
[41]
  TGI: > 100 µM
[42]
  TGI: > 100 µM
[43]
  TGI: > 100 µM
[44]
  TGI: > 100 µM
[45]
  TGI: > 100 µM
[46]
  TGI: > 100 µM
[56]
  TGI: > 100 µM
[47]
  TGI: > 100 µM
[48]
  TGI: > 100 µM
[49]
  TGI: > 100 µM
[50]
  TGI: > 100 µM
[57]
  TGI: > 100 µM
